Reference: PubChem BioAssay (NCI)
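In this assay, cells in 96-well plates receive the compound at five concentrations for 48 hours. Endpoints are linearly interpolated between the surrounding concentrations. The concentration for 50% growth inhibition is given as GI50. TGI marks complete inhibition of growth.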

Tests used:
Experiment in all cases: growth of human tumour cells (NCI), 48 h
NCI-H522 lung = test system: NCI-H522 lung
DU-145 prostate = test system: DU-145 prostate
U251 CNS = test system: U251 CNS
UACC-257 melanoma = test system: UACC-257 melanoma
NCI-H226 lung = test system: NCI-H226 lung
786-0 renal = test system: 786-0 renal
CCRF-CEM leukemia = test system: CCRF-CEM leukemia
SNB-19 CNS = test system: SNB-19 CNS
IGROV1 ovarian = test system: IGROV1 ovarian
NCI-H460 lung = test system: NCI-H460 lung

SMILES | GI50 (NCI-H522 lung) | TGI (NCI-H522 lung) | GI50 (DU-145 prostate) | TGI (DU-145 prostate) | GI50 (U251 CNS) | TGI (U251 CNS) | GI50 (UACC-257 melanoma) | TGI (UACC-257 melanoma) | GI50 (NCI-H226 lung) | TGI (NCI-H226 lung) | GI50 (786-0 renal) | TGI (786-0 renal) | GI50 (CCRF-CEM leukemia) | TGI (CCRF-CEM leukemia) | GI50 (SNB-19 CNS) | GI50 (IGROV1 ovarian) | TGI (IGROV1 ovarian) | GI50 (NCI-H460 lung) | TGI (NCI-H460 lung) | TGI (SNB-19 CNS)
COc1cc2c3c(n(C)c(=O)c2cc1OC)-c1cc2c(cc1/C3=C\CN)OCO2 | 0.835 µM | > 43.5 µM | 0.346 µM | 37.1 µM | 0.0395 µM | 3.31 µM | 1.44 µM | 20.4 µM | 0.515 µM | 15.2 µM | 0.314 µM | 17.3 µM | 0.124 µM | 6.97 µM | < 0.0405 µM | 1.35 µM | > 100 µM | 0.0879 µM | > 24.1 µM | 
O=C(Nc1ccncc1)C(=O)c1cn(S(=O)(=O)c2ccc(F)cc2)c2ccccc12 | 0.823 µM | > 100 µM | 3.37 µM | 20.4 µM | 3.48 µM | > 100 µM | 11.7 µM | > 100 µM | 9.15 µM | > 100 µM | 4.55 µM | 79.7 µM | 6.21 µM | > 100 µM | 19.5 µM | 4.23 µM | > 100 µM | 16.3 µM | > 100 µM | > 100 µM
CNCC#Cc1c(F)ccc2c1/C(=C/c1[nH]ccc1OC)C(=O)N2 | 0.299 µM | 1.17 µM | 0.136 µM | 2.92 µM | 0.121 µM | 2.75 µM | 0.619 µM | 2.91 µM | 0.211 µM | 1.36 µM | 0.215 µM | 3.27 µM | 0.107 µM | 0.954 µM | 0.621 µM | 0.317 µM | 3.15 µM | 0.124 µM | 2.44 µM | 2.89 µM
O=C(c1ccccc1)c1cc2ccccc2o1 | 82.1 µM | > 100 µM | 73.6 µM | > 100 µM | 54.5 µM | > 100 µM | 77.9 µM | > 100 µM | > 100 µM | > 100 µM | > 100 µM | > 100 µM | > 100 µM | > 100 µM | > 100 µM | 25.4 µM | > 100 µM | > 100 µM | > 100 µM | > 100 µM
CN(C)CC[PH+](c1ccccc1)c1ccccc1.CN(C)CC[PH+](c1ccccc1)c1ccccc1.[Cl-].[Pd+2] | 73.6 µM | > 100 µM | > 100 µM | > 100 µM | > 100 µM | > 100 µM | > 100 µM | > 100 µM | > 100 µM | > 100 µM | > 100 µM | > 100 µM | 23.9 µM | > 100 µM | > 100 µM | > 100 µM | > 100 µM | > 100 µM | > 100 µM | > 100 µM
COc1cc(-c2cc(-c3cc4c([nH]c5ccccc54)c(-c4cc(OC)c(OC)c(OC)c4)n3)cc(-c3ccccc3)n2)cc(OC)c1OC | 2.32 µM | 8.01 µM | 11 µM | > 100 µM | 4.25 µM | 29.1 µM | 6.14 µM | 44.6 µM | 7.56 µM | > 100 µM | 7.15 µM | > 100 µM | 3.6 µM | > 100 µM | 9.92 µM | 6.44 µM | > 100 µM | 3.37 µM | 18.1 µM | > 100 µM
O=C1Nc2ccccc2/C1=N\[O-].O=C1Nc2ccccc2/C1=N\[O-].[Cu+2] | > 100 µM | > 100 µM | > 100 µM | > 100 µM | > 100 µM | > 100 µM | > 100 µM | > 100 µM | > 100 µM | > 100 µM | > 100 µM | > 100 µM | > 100 µM | > 100 µM | > 100 µM | > 100 µM | > 100 µM | > 100 µM | > 100 µM | > 100 µM
Oc1cccnc1[Se] |  | > 100 µM |  | > 100 µM |  | > 100 µM |  | > 100 µM |  | > 100 µM |  | 31.7 µM |  | > 100 µM |  |  | > 100 µM |  | > 100 µM | > 100 µM
COc1ccc2[nH]cc(C3(c4c[nH]c5ccc(OC)cc45)C(=O)Nc4ccc(F)cc43)c2c1 | 1.81 µM | 3.77 µM | 3.71 µM | 13.1 µM | 2.58 µM | 8.83 µM | 2.2 µM | 6.23 µM | 2.58 µM | 12 µM | 3.39 µM | 12.5 µM | 3.04 µM | 22.4 µM | 3.28 µM | 2.64 µM | 12.6 µM | 2.3 µM | 5.17 µM | 14.6 µM
COc1ccc(-c2nn(-c3ccc(NC(=O)c4ccc(Cl)c(Cl)c4)cc3)cc2-c2ccncc2)cc1Cl |  | > 46.3 µM | > 50 µM | > 50 µM | 1.3 µM | > 50 µM | > 34.5 µM | > 50 µM | > 28.2 µM | > 50 µM | 1.01 µM | 2.53 µM | 3.63 µM | > 50 µM | 4.2 µM | > 50 µM | > 50 µM | 2.02 µM | > 50 µM | > 50 µM
